Experimental data reported in patent US5064817A, “Phospholipase A2 inhibiting compositions and their use” (Yissum Research Development Company of Hebrew University of …, priority 1987, dated 1991).
“And” between values parts separate entries of the source, which are not always exact repeats. Equal entries are not always repeated.

Assays:
[1] = test system: crude phospholipase A2 (extracted from human polymorphonuclear leukocytes); test: Inhibition of phospholipase A2 from human PMN leukocytes (14C-oleate-labelled E. coli substrate); assay type: biochemical; conditions: 37°, 60 min, pH 7.0, 0.5 mmol/l CaCl2
Procedure: The reaction is stopped by extraction with modified Dole reagent. Free oleic acid is separated on a disposable silicic acid (Kieselgel G 100) column and the radioactivity is determined. Percent inhibition is calculated after subtracting a blank (assay mixture without enzyme).

[2] = test system: PLA2-oedema (purified phospholipase A2 from porcine pancreas, subplantar); test: Inhibition of PLA2-oedema in rats (paw plethysmometry); assay type: in vivo; conditions: rat
Procedure: By subplantar injection of 200 U PLA2 (ca. 0.3 mg purified phospholipase A2 from porcine pancreas, Boehringer Mannheim) in 100 μl physiological saline into the left hind paw of male or female rats (LEW/TIF, ca. 200 g body weight, 5 animals per group) a localized edema was induced and its intensity was determined plethysmometrically 3 and 5 hours later. Test compounds were suspended in 0.75% methylcellulose and administered i.p. (5 ml/kg) 1 hour prior to the PLA2 injection. The edema-inhibiting effect was expressed as percent inhibition in comparison to vehicle-treated controls.

[3] = test system: Prostaglandin (PGE2) production in mouse peritoneal macrophages; test: Inhibition of PGE2 production in mouse peritoneal macrophages; assay type: cell-based; conditions: 10^-5 M phorbol-myristate-acetate, 2 hours, repeated lines per PLI type
Procedure: Peritoneal cells from NMRI mice were obtained by lavage with Dulbeccos MEM. The cells were washed and plated at 2×10^4 /well in Dulbeccos MEM with FCS in 96-well plates. After 2 hours (or overnight) incubation at 37°, the adherent macrophages were washed 3 times. The medium was replaced by Dulbeccos MEM with lactalbumin hydrolysate. Test compounds were suspended in water. One hour later, the macrophages were stimulated with 10^-5 M phorbol-myristate-acetate. Another 2 hours later, PGE2 and LTC4 were measured int he supernatants by radioimmunoassay. The results are expressed as IC50 of PGE2 - and LTC4 -production.

[4] = test system: Serotonin secretion in Rat Basophilic Leukemia (RBL) cells; test: Inhibition of serotonin secretion in RBL cells; assay type: cell-based; conditions: HMS 1.5 mg/ml, ionophore A23187 0.3 μM
Procedure: Cultured RBL were incubated with tritiated serotonin (10^7 DPM/ml/10^6 cell) for 2 hours, then washed. Serotinin secretion was activated in the absence or presence of HMS (1.5 mg/ml) by the addition of the ionophore A23187 (0.3 μM) for the desired time. The radioactive serotonin accumulated in the culture medium during the activation period was determined. In the absence of HMS, approximately 1.3 and 1.9 DPM×10^5 was excreted in 15 and 30 minutes, respectively, whereas in the presence of the HMS, only about 0.3 DPM×10^5 was secreted in each of these time periods.

[5] = test system: Phospholipase A2 (PLA2) activity in Rat Basophilic Leukemia (RBL) cells; test: Inhibition of PLA2 activity in RBL cells (C6-NBD-PC hydrolysis); assay type: cell-based
Procedure: Cultured RBL cells were incubated with the fluorescent substrate of PLA2 (C6 -NBD-PC) as described by Yedgar et al. (1986) FEBS Letters, 200:165-168. After 1 hour of incubation, the cultures were subjected to lipid extraction and determination of C6 -NBD-PC hydrolysed as previously described.

[6] = test system: human platelet aggregation; test: Inhibition of human platelet aggregation in platelet-rich plasma; assay type: cell-based; conditions: human PRP
Procedure: (§1) Platelet-rich plasma (PRP) was obtained from human donors by centrifugation. Platelet aggregation at 37° C. and TXB2 secretion were induced by the addition of an aggregating agent (inducer) as indicated in the table below. Platelet aggregation was determined by measurement of the suspension optical density in a double beam aggregometer. Results are expressed as % of the control aggregation obtained by the addition of the inducer in the absence of an inhibitor. TXB2, secretion to the extracellular medium, was determined by radioimmunoassay. When the test PLI was applied, the PRP was incubated with the inhibitor for 10 min at 37° C., prior to induction of aggregation.

[7] = test system: adjuvant arthritis (Freunds adjuvant paw swelling); test: Adjuvant arthritis model of inflammation; assay type: in vivo, rat; conditions: for gross signs of toxicity: 70 mg/kg subcutaneously, two week dosing period; for paw diameter (measured with calipers): arthritic animals, by day 14; for paw diameter (measured with calipers) / decrease in paw swelling, injected paw / decrease in paw swelling, noninjected paw: 70 mg/kg subcutaneously day 3 to day 14; for decrease in paw swelling, injected paw / decrease in paw swelling, noninjected paw: arthritic rats, day 14
Procedure: Two compounds (CMS and HMS) were tested in the adjuvant arthritis model of inflammation. Paw swelling is induced by an injection of Freunds adjuvant into the right hind paw. Systemic inflammation spreads to the controlateral paw within 2 weeks. The compounds were administered subcutaneously from day 3 to day 14 at a dose of 70 mg/kg. […] CMS decreased noninjected paw swelling 51% (P≤0.005) and injected paw swelling 30% (P≤0.001). […] No drug treated group lost weight compared to the arthritic controls.

[8] = test system: Thromboxane (TXB2) secretion by human platelets; test: Inhibition of thromboxane (TXB2) secretion by human platelets; assay type: cell-based; conditions: human PRP
Procedure: as §1

[9] = test system: prostacyclin (6-keto-PGF1 α) production in cultured adrenal capillary endothelial cells; test: Inhibition of prostacyclin production in endothelial cells; assay type: cell-based; conditions: for % Inhibition of prostacyclin production: PLI 1 mg/ml + Bradykinin 1 μM; for 6-keto-PFG1α PROD.: PLI 1 mg/ml + Bradykinin 1 μM (Bradykinin alone 201.9 ± 21.6)
Procedure: Method: Cultured adrenal capillary endothelial cells were stimulated to produce prostacyclin (6-keto-PGF1 α) by bradykinin in the absence and presence of CMS or HME. The prostacyclin, secreted to the culture medium was determined by radioimmunoassay.

[10] = 100 mg/kg i.p., 1 hour prior to PLA2
[11] = 1 × 20 mg/kg i.p., 1 hour prior to PLA2
[12] = line (e), 1 × i.p., dose not given
[13] = Epinephrine 0.8 μg/ml, PLI 1.5 mg/ml

Substance: Hemaccellphosphatidylserine [HMS]
- Inhibition of PLA2 from human PMN, IC50 [1]: 57 µg/mL
- % Inhibition of PLA2-oedema, 3 hours [2, 10]: 63%
- % Inhibition of PLA2-oedema, 5 hours [2, 10]: 80%
- % Inhibition of PLA2-oedema, 3 hours [2, 11]: 36%
- % Inhibition of PLA2-oedema, 5 hours [2, 11]: 62%
- IC50 for PGE2 production [3]: > 100 µg/mL
- radioactive serotonin secreted to culture medium ([4]; 15 minutes (without HMS approx. 1.3)): about 0.3 DPM×10^5
- radioactive serotonin secreted to culture medium ([4]; 30 minutes (without HMS approx. 1.9)): about 0.3 DPM×10^5
- C6-NBD-PC hydrolysed ([5]; HMS 0.5 mg/ml (control 1.42 ± 0.19)): 0.37 ± 0.04 nmole/mg cell protein-hour
- C6-NBD-PC hydrolysed ([5]; HMS 1.5 mg/ml (control 1.42 ± 0.19)): 0.11 ± 0.07 nmole/mg cell protein-hour
- Aggregation (% of control) ([6]; Epinephrine 0.8 μg/ml, PLI 1.2 mg/ml): 2 % of control
- gross signs of toxicity [7]: no gross signs of toxicity
- paw diameter (measured with calipers) [7]: significantly decreased
- decrease in paw swelling, injected paw [7]: 19%
- decrease in paw swelling, noninjected paw [7]: 43%

Substance: Hemaccellphosphatidylethanolamine [HME]
- % Inhibition of PLA2-oedema, 3 hours [2, 12]: 0%
- % Inhibition of PLA2-oedema, 5 hours [2, 12]: 0%
- % Inhibition of PLA2-oedema, 3 hours ([2]; line (f), i.p., dose not given): 27%
- % Inhibition of PLA2-oedema, 5 hours ([2]; line (f), i.p., dose not given): 25%
- % Inhibition of PLA2-oedema, 3 hours ([2]; line (g), i.p., dose not given): 53%
- % Inhibition of PLA2-oedema, 5 hours ([2]; line (g), i.p., dose not given): 45%
- Aggregation (% of control) ([6]; ADP 2 μg/ml, PLI 0.70 mg/ml): 6 % of control
- Aggregation (% of control) ([6]; Collagen 40 μg/ml, PLI 0.85 mg/ml): 13 % of control
- Aggregation (% of control) ([6]; Epinephrine 0.8 μg/ml, PLI 0.75 mg/ml): 9 % of control
- TXB2 secreted ([8]; ADP 2 μg/ml, PLI 0.70 mg/ml (without PLI 82 ± 4)): 14 ± 7 ng/mL
- TXB2 secreted ([8]; Collagen 40 μg/ml, PLI 0.85 mg/ml (without PLI 42 ± 6)): 17 ± 7 ng/mL
- % Inhibition of prostacyclin production [9]: 82%
- 6-keto-PFG1α PROD. [9]: 36.4 ± 7.2 PG/10^-6 Cells

Substance: carboxymethylcellulose phosphatidylethanolamine [CME]
- Aggregation (% of control) [6, 13]: 0 % of control

Substance: alginic acid phosphatidylethanolamine [ALE]
- Aggregation (% of control) ([6]; Epinephrine 0.8 μg/ml, PLI 0.7 mg/ml): 9 % of control

Substance: alginic acid phosphatidylserine [ALS]
- Aggregation (% of control) [6, 13]: 5 % of control

Substance: Dextranhydrazide-dodecanedioic-phosphatidylserine [Dex-Ac-PS, reference compound]
- Inhibition of PLA2 from human PMN, IC50 [1]: 720 µg/mL
- IC50 for PGE2 production [3]: 300 µg/mL and 600 µg/mL
- Aggregation (% of control) ([6]; ADP 2 μg/ml, PLI 3.0 mg/ml): 14 % of control
- Aggregation (% of control) ([6]; Epinephrine 0.8 μg/ml, PLI 6.5 mg/ml): 19 % of control

Substance: carboxymethylcellulosephosphatidylserine [CMS]
- Inhibition of PLA2 from human PMN, IC50 [1]: 40 µg/mL
- % Inhibition of PLA2-oedema, 3 hours [2, 10]: 51%
- % Inhibition of PLA2-oedema, 5 hours [2, 10]: 54%
- % Inhibition of PLA2-oedema, 3 hours [2, 11]: 15%
- % Inhibition of PLA2-oedema, 5 hours [2, 11]: 29%
- IC50 for PGE2 production [3]: 100 µg/mL and > 100 µg/mL
- Aggregation (% of control) [6, 13]: 0 % of control
- % Inhibition of prostacyclin production [9]: 61%
- 6-keto-PFG1α PROD. [9]: 78.7 ± 6.8 PG/10^-6 Cells
- gross signs of toxicity [7]: no gross signs of toxicity
- paw diameter (measured with calipers) [7]: significantly decreased
- decrease in paw swelling, injected paw [7]: 30%
- decrease in paw swelling, noninjected paw [7]: 51%
